Reference: patent US20260176289A1, “SMALL MOLECULE INHIBITORS OF KRAS PROTEINS” (Merck Sharp & Dohme LLC, priority 2022, published 2026)

How the values were obtained:
KRAS-WT = KRAS-WT (Homo sapiens, UniProt P01116); experiment: SOS-catalyzed nucleotide exchange assay (Procedure A, TR-FRET), KRAS-WT; type: biochemical; details: nucleotide exchange, read-out: KRAS WT GNE IC50
In short: (§1)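 TR-FRET 520/495 nm ratio read after SOS-driven exchange of Bodipy-GDP for unlabeled GTP (3 mM) on biotinylated RAS bound to Tb-streptavidin. There was a 60 min compound preincubation, RT. Final RAS/SOS and reaction times: G12C 3 nM/40 nM; WT 1 nM/40 nM; NRAS 1.25 nM/40 nM, each 60 min. G12V was 1.25 nM/160 nM, 90 min.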

[1] = biological target: KRAS-G12C (C51S/C80L/C118S) (Homo sapiens, UniProt P01116, C118S/C51S/C80L/G12C); experiment: SOS-catalyzed nucleotide exchange assay (Procedure A, TR-FRET), KRAS-G12C; type: biochemical; details: nucleotide exchange, Procedure A; read-out: KRAS G12C GNE IC50
In short: as §1

KRAS-G12D = KRAS-G12D (Homo sapiens, UniProt P01116, G12D); experiment: SOS-catalyzed nucleotide exchange assay (Procedure A, TR-FRET), KRAS-G12D; type: biochemical; details: nucleotide exchange, read-out: KRAS G12D GNE IC50
In short: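 Signal ratio (520/495 nm, excitation 340 nm) reports Bodipy-GDP retention on biotinylated RAS after SOS-catalyzed exchange with 3 mM GTP. SOS was 40 nM, except 160 nM for G12V. Room-temperature exchange lasted 60 min (90 min for G12V), following a 60 min compound preincubation.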

KRAS-G12V = KRAS-G12V (Homo sapiens, UniProt P01116, G12V); experiment: SOS-catalyzed nucleotide exchange assay (Procedure A, TR-FRET), KRAS-G12V; type: biochemical; details: nucleotide exchange, read-out: KRAS G12V GNE IC50
In short: as §1

KRAS-G13D = KRAS-G13D (Homo sapiens, UniProt P01116, G13D); experiment: SOS-catalyzed nucleotide exchange assay (Procedure A, TR-FRET), KRAS-G13D; type: biochemical; details: nucleotide exchange, Procedure A; read-out: KRAS G13D GNE IC50
HRAS = HRAS (Homo sapiens, UniProt P01112); experiment: SOS-catalyzed nucleotide exchange assay (Procedure A, TR-FRET), HRAS; type: biochemical; details: read-out: HRAS GNE IC50
From the text: Procedure for SOS-Catalyzed Nucleotide Exchange Assay for KRAS-WT, G12C/D/V, G13D, HRAS, and NRAS (Procedure A)
Recombinant KRAS-G12C protein used in this assay has an additional triple mutation (C51S/C80L/C118S). Whereas KRAS-WT, G12D/V, G13D, HRAS and NRAS are in context of their WT protein sequence background. Specifically, the SOS-catalyzed nucleotide exchange assay utilizes a preformed TR-FRET complex containing a specific biotinylated RAS protein (KRAS-WT, G12C/V/D, G13D, HRAS, NRAS; described above) with Bodipy-GDP, and Terbium-streptavidin. Compounds are preincubated with this complex for 60 minutes. Subsequently, recombinant human SOS protein and unlabeled GTP are added to initiate the exchange reaction. Small molecule inhibitors stabilize the Bodipy-GDP complex whereas the untreated protein rapidly exchanges Bodipy-GDP for unlabeled GTP resulting in reduced TR-FRET signal.
To assemble the preformed TR-FRET complexes, each biotinylated RAS protein is diluted to 2 μM in an EDTA Buffer (20 mM HEPES pH 7.5, 50 mM sodium chloride, 10 mM EDTA, and 0.01% Tween) and incubated at room temperature for one hour. This mixture is then further diluted to 90 nM in an Assay Buffer (20 mM HEPES pH 7.5, 150 mM sodium chloride, 10 mM magnesium chloride, and 0.005% Tween) containing 15 nM of Terbium-Streptavidin (Invitrogen, catalog #PV3577) and 900 nM of Bodipy-GDP (Invitrogen, catalog #G22360) and incubated at room temperature for six hours. It should be noted that this preformed TR-FRET complex for each of the RAS protein were made ahead of time, aliquoted and stored at −80° C. until the day of the experiment.
Each test compound (10 mM stock in DMSO) is diluted in DMSO to make a final-10-point, 3-fold dilution and is acoustically dispensed into a 384-well assay plate (Corning, catalog #3820) using an Echo 550 (Labcyte). Each well of the assay plate receives 3 μL of a specific 3×RAS preformed TR-FRET complex and 3 μL of Assay Buffer and is incubated at room temperature for 60 minutes (preincubation time). Each well then receives 3 μL of 3×recombinant human SOS protein and GTP (Sigma, G8877) in Assay Buffer and is incubated at room temperature for 30 minutes (G13D), 60 minutes (KRAS WT/G12C/D, H/NRAS) or 90 minutes for G12V. The final reaction in each well of 9 μL consists of 3 mM GTP, specific Ras and SOS proteins in the following concentrations: KRAS-G12C/SOS=3 nM/40 nM, KRAS-WT and G12D/SOS=1 nM/40 nM, KRAS-G12V/SOS=1.25 nM/160 nM. KRAS-G13D/SOS=1.25 nM/0 nM, HRAS and NRAS=1.25 nM/40 nM.
The time-resolved fluorescence resonance energy transfer (TR-FRET) signal is measured on an Envision (PerkinElmer) plate reader: Excitation filter=340 nm; emission 1=495 nm; emission2=520 nm; dichroic mirror=D400/D505; delay time=[…]. The signal of each well is determined as the ratio of the emission at 520 nm to that at 495 nm. Percent effect of each well is determined after normalization to control wells containing DMSO (no effect) or a saturating concentration of inhibitor (max effect). The apparent effect as a function of compound concentration is fit to a four-parameter logistic equation.

MKN-1 cells = experiment: Cellular phospho-ERK assay, MKN-1 cells (amplified wild-type KRAS); type: cell-based; details: Homo sapiens, 2 hours compound incubation, read-out: MKN1 pERK IC50
In short: (§2)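 Cells were seeded overnight, then treated 2 h at 37° C with compound in a 10-point, 1:3 titration from 30 μM top final concentration. Lysates were assayed by AlphaLISA SureFire Ultra for p-ERK and total ERK. IC50 came from a 4-parameter logistic fit of the p-ERK/total ERK ratio.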

AsPC-1 cells = experiment: Cellular phospho-ERK assay, AsPC-1 cells (homozygous KRAS-G12D); type: cell-based; details: Homo sapiens, ASPC1, 2 h, 2 hours compound incubation, read-out: AsPC1 pERK IC50
In short: as §2

SW620 cells = experiment: Cellular phospho-ERK assay, SW620 cells (homozygous KRAS-G12V); type: cell-based; details: Homo sapiens, SW-620, 2 hours compound incubation, read-out: SW620 pERK IC50
In short: as §2

KRAS-G13D, sequence (P01116 with tags, fused parts or gaps isoform P01116-2 G13D): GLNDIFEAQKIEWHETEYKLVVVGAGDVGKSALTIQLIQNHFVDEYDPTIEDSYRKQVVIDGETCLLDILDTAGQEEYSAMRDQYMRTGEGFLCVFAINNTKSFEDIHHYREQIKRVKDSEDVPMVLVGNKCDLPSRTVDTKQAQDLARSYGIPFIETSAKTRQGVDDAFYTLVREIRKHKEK
KRAS-WT, sequence (P01116 with tags, fused parts or gaps isoform P01116-2): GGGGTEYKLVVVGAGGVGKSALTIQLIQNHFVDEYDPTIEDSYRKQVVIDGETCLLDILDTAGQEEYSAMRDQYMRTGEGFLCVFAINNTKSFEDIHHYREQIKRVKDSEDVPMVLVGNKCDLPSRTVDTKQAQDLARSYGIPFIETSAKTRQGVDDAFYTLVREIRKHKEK
KRAS-G12C (C51S/C80L/C118S), sequence (P01116 with tags, fused parts or gaps isoform P01116-2 G12C/C51S/C80L/C118S): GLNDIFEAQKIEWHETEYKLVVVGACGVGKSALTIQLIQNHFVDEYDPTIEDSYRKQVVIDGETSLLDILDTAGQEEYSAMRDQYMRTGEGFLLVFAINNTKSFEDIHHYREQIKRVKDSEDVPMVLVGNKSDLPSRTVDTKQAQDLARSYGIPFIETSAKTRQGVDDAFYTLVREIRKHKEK
KRAS-G12D, sequence (P01116 with tags, fused parts or gaps isoform P01116-2 G12D): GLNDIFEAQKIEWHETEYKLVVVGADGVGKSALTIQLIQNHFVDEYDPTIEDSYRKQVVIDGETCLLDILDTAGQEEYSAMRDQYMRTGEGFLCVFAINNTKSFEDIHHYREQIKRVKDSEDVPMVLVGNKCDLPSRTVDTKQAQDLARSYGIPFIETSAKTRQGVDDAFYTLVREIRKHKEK
HRAS, sequence (P01112 with tags, fused parts or gaps): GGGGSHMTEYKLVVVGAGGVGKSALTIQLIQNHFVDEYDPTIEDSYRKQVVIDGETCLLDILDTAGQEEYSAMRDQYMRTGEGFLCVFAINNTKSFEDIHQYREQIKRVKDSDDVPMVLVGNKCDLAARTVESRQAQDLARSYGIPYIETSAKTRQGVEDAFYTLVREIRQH
KRAS-G12V, sequence (P01116 with tags, fused parts or gaps isoform P01116-2 G12V): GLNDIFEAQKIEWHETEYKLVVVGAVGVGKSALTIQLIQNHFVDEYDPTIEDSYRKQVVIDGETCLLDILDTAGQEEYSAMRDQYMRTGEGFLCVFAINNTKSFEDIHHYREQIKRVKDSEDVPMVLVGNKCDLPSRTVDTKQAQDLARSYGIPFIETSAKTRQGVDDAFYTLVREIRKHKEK

| Compound | IC50 (KRAS-WT) [nM] | IC50 [1] [nM] | IC50 (KRAS-G12D) [nM] | IC50 (KRAS-G12V) [nM] | IC50 (KRAS-G13D) [nM] | IC50 (HRAS) [nM] | IC50 (MKN-1 cells) [nM] | IC50 (AsPC-1 cells) [nM] | IC50 (SW620 cells) [nM] |
| --- | --- | --- | --- | --- | --- | --- | --- | --- | --- |
| C[C@@]1(O)COCCN(c2nc(OC[C@@]34CCCN3C/C(=C/F)C4)nc3sc4c(-c5c(C6CC6)c(Cl)cc6[nH]ncc56)nccc4c23)C1 [Ex-209, (6S)-4-(8-(6-chloro-5-cyclopropyl-1H-indazol-4-yl)-2-(((S,E)-2-(fluoro-methylene)tetra-hydro-1H-pyrrol-izin-7a(5H)-yl)-methoxy)pyrido [4′,3′:4,5]thieno [2,3-d]pyrimidin-4-yl)-6-methyl-1,4-oxazepan-6-ol] | 9.46 | 47.7 | 2.91 | 12 | 13.6 | 9430 | 158 | 53 | 49.7 |
| C[C@H](N(C)C)[C@@]1(COc2nc(N3CCOC[C@@](C)(O)C3)c3c(n2)sc2c(-c4c(C5CC5)c(Cl)cc5[nH]ncc45)nccc23)CC1(F)F [Ex-215, (6S)-4-(8-(6-chloro-5-cyclopropyl-1H-indazol-4-yl)-2-(((R)-1-((S)-1-(dimethylamino)-ethyl)-2,2-difluoro-cyclopropyl)meth-oxy)pyrido[4′,3′: 4,5]thieno[2,3-d]pyrimidin-4-yl)-6-methyl-1,4-oxaze-pan-6-ol] | 16 | 105 | 3.75 | 20.9 | 38.9 | 1610 | 32.6 | 55.9 | 23 |
| C=C1CN2CCC[C@@]2(COc2nc(N3CCOC[C@@](C)(O)C3)c3c(n2)sc2c(-c4c(C5CC5)c(Cl)cc5[nH]ncc45)nccc23)C1 [Ex-224, (6S)-4-(8-(6-chloro-5-cyclopropyl-1H-indazol-4-yl)-2-(((S)-2-methylene-tetrahydro-1H-pyrrolizin-7a(5H)-yl)methoxy)pyrido [4′,3′:4,5]thieno[2,3-d]pyrimidin-4-yl)-6-methyl-1,4-oxaze-pan-6-ol] | 5.37 | 19 | 2.72 | 11.9 | 5.48 | 3310 | 23.5 | 19.4 | 9.81 |
| C[C@@]1(O)COCCN(c2nc(OC[C@]3(CN4CC5(CC(F)C5)C4)CC3(F)F)nc3sc4c(-c5c(C6CC6)c(Cl)cc6[nH]ncc56)nccc4c23)C1 [Ex-230] | 88.5 | 21.1 | 16 | 70.1 | 13.9 | 1640 | 52.7 | 51.5 | 23.2 |
| COC1(C)CN(C[C@@]2(COc3nc(N4CCOC[C@@](C)(O)C4)c4c(n3)sc3c(-c5c(C6(F)CC6)c(Cl)cc6[nH]ncc56)nccc34)CC2(F)F)C1 [Ex-240, (6S)-4-(8-(6-chloro-5-(1-fluorocyclopropyl)-1H-indazol-4-yl)-2-(((R)-2,2-difluoro-1-((3-methoxy-3-methylazetidin-1-yl)methyl)cyclopropyl)metho-xy)pyrido[4′,3′:4,5]thieno[2,3-d]pyrimidin-4-yl)-6-methyl-1,4-oxazepan-6-ol] | 20 | 19.4 | 4.31 | 10.4 | 45.8 | 2220 | 39.3 | 58.8 | 36.1 |
| C[C@@]1(O)COCCN(c2nc(OC[C@]3(CN4CC5(CCOC5)C4)CC3(F)F)nc3sc4c(-c5c(C6(F)CC6)c(Cl)cc6[nH]ncc56)nccc4c23)C1 [Ex-245, (6S)-4-(2-(((R)-1-((6-oxa-2-azaspiro[3.4]octan-2-yl)methyl)-2,2-difluorocyclopropyl)methoxy)-8-(6-chloro-5-(1-fluorocyclopropyl)-1H-indazol-4-yl)pyrido[4′,3′:4,5]thieno[2,3-d)pyrimidin-4-yl)-6-methyl-1,4-oxazepan-6-ol] | 18.5 | 19.1 | 4.22 | 12.9 | 15.9 | 1290 | 44 | 70.4 | 47.6 |
